In the NIST ThermoML archive (doi:10.1021/je020185k):

Columns and labels:
[1] = Liquid; for mass density: 298.15 K, 101.33 kPa
[2] = xn = mol fraction of the nth substance listed; settings: 298.15 K, 101.3 kPa, Liquid

CCC(C)Cl (centres undefined) [2-chlorobutane]
Settings	mass density [kg/m3]
[1]	867.4

Settings	Normal boiling temperature [°C]
[1], Ebulliometric method (Recirculating still)	68.11

CC(C)(C)Cl [2-chloro-2-methylpropane] + C1COCCO1
[2]
Settings	mass density [kg/m3]
x2 = 0.0563	845.77
x2 = 0.1059	853.89
x2 = 0.2019	870.2
x2 = 0.3134	889.71
x2 = 0.4148	908.22
x2 = 0.5097	926.46
x2 = 0.6071	945.55
x2 = 0.7113	966.4
x2 = 0.8	984.5
x2 = 0.9062	1006.81
x2 = 0.9554	1017.73

CCC(C)Cl (centres undefined) [2-chlorobutane] + C1COCCO1
[2]
Settings	mass density [kg/m3]
x2 = 0.0522	874.11
x2 = 0.0886	878.88
x2 = 0.1892	892.48
x2 = 0.2923	907.06
x2 = 0.3647	917.71
x2 = 0.4928	937.42
x2 = 0.6155	957.41
x2 = 0.7149	974.47
x2 = 0.8019	990.07
x2 = 0.9068	1009.72
x2 = 0.941	1016.33

CCCCCl [1-chlorobutane]
Settings	mass density [kg/m3]
[1]	880.69

Settings	Normal boiling temperature [°C]
[1], Ebulliometric method (Recirculating still)	78.37

C1COCCO1 [1,4-dioxane]
[1]
Settings	Normal boiling temperature [°C]	mass density [kg/m3]
–	101.37	1027.88

CC(C)CCl [1-chloro-2-methylpropane] + C1COCCO1
[2]
Settings	mass density [kg/m3]
x2 = 0.0529	877.81
x2 = 0.1009	883.95
x2 = 0.2001	896.98
x2 = 0.3003	910.79
x2 = 0.3957	924.5
x2 = 0.5022	940.58
x2 = 0.5945	955.19
x2 = 0.7005	972.78
x2 = 0.7926	988.8
x2 = 0.8978	1008.04
x2 = 0.9371	1015.61

CC(C)(C)Cl [2-chloro-2-methylpropane]
Settings	mass density [kg/m3]
[1]	836.45

Settings	Normal boiling temperature [°C]
[1], Ebulliometric method (Recirculating still)	50.73

CC(C)CCl [1-chloro-2-methylpropane]
Settings	mass density [kg/m3]
[1]	871.13

Settings	Normal boiling temperature [°C]
[1], Ebulliometric method (Recirculating still)	68.90

CCCCCl [1-chlorobutane] + C1COCCO1
[2]
Settings	mass density [kg/m3]
x2 = 0.0422	885.61
x2 = 0.0947	891.8
x2 = 0.2055	905.35
x2 = 0.2766	914.45
x2 = 0.4083	932.02
x2 = 0.4852	942.87
x2 = 0.6082	961.08
x2 = 0.6587	968.92
x2 = 0.7939	990.92
x2 = 0.894	1008.37
x2 = 0.9509	1018.71
